Assays:
isolated mouse islets = assay: GSIS test in isolated mouse islets; type: cell-based; conditions: 24 h; 2.5 or 16.7 mM glucose
Protocol: Mice (6 in total) were euthanized by cervical dislocation; the mouse torso was saturated with 70% ethanol. The abdominal cavity was opened completely from anus to diaphragm. The body and tail of the pancreas were removed and separated from fat and large vessels. The pancreas was washed once with HBSS solution and cut into small pieces of approximately 2×3 mm with a scissors. After an additional wash with HBSS solution, the pieces of pancreas were placed in two 50 ml Falcon tubes containing 4 ml of a freshly prepared solution of collagenase (2 mg/ml). After vigorous shaking at 37° C. for approximately 20 min, the collagenase digestion was interrupted by adding 45 ml of ice-chilled HBSS solution. The digested pancreatic tissue was spinned down at 330×g for 3 minutes. Supernatant was removed again and an additional 45 mL of “islet media” was added and spinned down at 330×g for 3 minutes. The histopaque was decanted and the tubes were inverted to drain on an absorbent paper towel for 1 min. The pellet was resuspended in 20 ml for each tube in cold 30% Ficoll solution. […]
Frozen islets medium or lysates were thawed on ice and diluted with water (a typical dilution for the lysate was 300× and for the supernatant—5×). […] The signal was determined by a SpectraMax M5 spectrophotometer. The concentrations of insulin in the samples were normalized by the total protein determined by the BCA assay.

INS-1E cells [1] = assay: Glucose-stimulated insulin secretion (GSIS) in INS-1E cells; type: cell-based, rat; conditions: INS-1E cells; 2.5 mM or 16.7 mM glucose
Protocol: FIG. 3, comprising FIG. 3A through FIG. 3D, depicts the evaluation of the biological activity of HSA-112 in INS-1E cells. FIG. 3A depicts a dose-response analysis of the effect of HSA-112 on the rate of insulin secretion in INS-1E cells. The INS-1E cells were grown and treated with increasing doses of HSA-112 for 24 h, as described in Methods. Subsequently, cells were mixed with different concentrations of HSA-112, as indicated in the graph (red columns), PEG2000 (green columns), and free peptide (blue columns) and were seeded in 12-well plates. After 24 h the cells were taken to a GSIS in the presence of 2.5 mM (weak color bars) or 16.7 mM (strong color bars) glucose. FIG. 3B depicts the time-course analysis of the effect of HSA-112 on the rate of insulin secretion in INS-1E cells. The INS-1E cells were prepared for the experiment as described above with 50 μM of HSA-112, PEG2000, or free peptide. After incubation, as indicated in the graph, the cells were taken to a GSIS as described above. FIG. 3C depicts the cell protective effect of HSA-112 under oxidative stress conditions. Cells were prepared for the experiment as described in Methods. Trolox was used as a positive control at a concentration of 100 μM. The oxidative stress was induced in the tissue culture, as described in Methods. Standard MTT analysis (also described in Methods) was used for evaluating the effect of HSA-112 on cell viability. FIG. 3D depicts INS-1E cell proliferation. Cells were prepared for the experiment as described above. After 24 h the cells were colored by trypan blue and counted as described in Methods *p<0.05, n=6. MEAN±SE.
FIG. 7, comprising FIG. 7A through FIG. 7G, depicts the evaluation of the biological activity of HSA-28P in INS-1E cells. FIG. 7A depicts dose-response analysis of the effect of HSA-28P on the rate of insulin secretion in INS-1E cells. The INS-1E cells were grown and trypsinized as described in Methods. Subsequently, cells were mixed with the indicated concentrations of HSA-28P (red columns), non-relevant peptide nanoparticles (NRPNP, green columns), and naked nanoparticles (NP, blue columns) and were seeded in 12-well plates. After 24 h the cells were taken to a GSIS in the presence of 2.5 mM (weak color bars) or 16.7 mM (strong color bars) glucose. FIG. 7B depicts time-course analysis of the effect of HSA-28P on the rate of insulin secretion in INS-1E cells. The INS-1E cells were prepared for the experiment as described above with 1.34 μM of both HSA-28P or NRPNP, and 0.76 μg/ml of NP. After incubation for the time indicated in the graph, the cells were taken to a GSIS as described in Methods. FIG. 7C depicts the measurement of insulin content. The RIA-assay was performed for INS-1E lysates. FIG. 7D depicts the Effect of HSA-28P on the cells viability under oxidative stress conditions. INS-1E cells were incubated for 24 h with a medium supplemented with HSA-28P (3 μM), or HSA-28P1/2 (1.5 μM), or NPs covered by phantom random peptide (PPNP, 3 μM), or NP (0.76 μg/ml), or HSA-28 (3 μM) and trolox, as a positive antioxidant control (1 mM). After the incubation time, 50 mU/ml of glucose oxidase (GO) was added for an additional 1.15 h. Upon completion of the experiments, a standard MTT assay was conducted as described in Methods. Cell viability is presented as a percentage in comparison to non-treated cells. FIG. 7E depicts the effect of HSA-28P on the cell proliferation rate. Experiments were conducted on INS-1E cells that were seeded in 6-well plates. INS-1E cells were treated as described in Panel D. Cells were detached by trypsin and counted as described in Methods and then were visualized with a Cells Sense Live Imaging microscope. FIG. 7F depicts light microscope images of untreated cells. FIG. 7G depicts light microscope images of cells that were treated with HSA-28P. *p<0.05, n=3. MEAN±SE. […]

INS-1E cells [2] = assay: Insulin secretion of INS-1E cells after 5 h incubation with peptidomimetic agent; type: cell-based, rat; conditions: INS-1 β cells
Protocol: FIG. 22, comprising FIG. 22A through FIG. 22C, depicts experimental results of incubation of INS1E cells with peptidomimetic agent. A peptidomimetic agent was designed to mimic neuroligin's binding site for neurexin. Monomers and dimers had no effect on insulin secretion. Multiple dimers were conjugated to PEG-2000 to simulate clustering (reagent HSA-112). Dimers were also clustered on nanoparticles (HSA-637). FIG. 22A depicts INS-1E cells were incubated for 5 h with HSA-112 (blue columns) or HSA-637 (purple) at different concentrations or with vehicle alone (black), washed, and then tested for insulin secretion at 3 mM glucose (striped columns) or at 20 mM glucose (solid columns). […] FIG. 22B depicts a time course: insulin secretion was analyzed after the number of hours indicated following a 5 h incubation with 100 μM HSA-112 (blue), 500 nM HSA-637 (purple) or vehicle alone (black). Incubations were with 3 mM glucose (striped columns) or 20 mM glucose (solid columns). FIG. 22C depicts microscopy where INS-1E cells were incubated with HSA-637 conjugated to a fluorescent dye (Cy5, red) and then washed. Membranes were stained with Alexa Fluor 488 (green). For better visualization, microscopy was in hypotonic saline causing the INS-1E cells to swell and become more rounded.

INS-1E cells [3] = assay: Cell counting (trypan blue) / proliferation and cluster formation; type: cell-based, rat; conditions: 24 h
Protocol: FIG. 7, comprising FIG. 7A through FIG. 7G, depicts the evaluation of the biological activity of HSA-28P in INS-1E cells. FIG. 7A depicts dose-response analysis of the effect of HSA-28P on the rate of insulin secretion in INS-1E cells. The INS-1E cells were grown and trypsinized as described in Methods. Subsequently, cells were mixed with the indicated concentrations of HSA-28P (red columns), non-relevant peptide nanoparticles (NRPNP, green columns), and naked nanoparticles (NP, blue columns) and were seeded in 12-well plates. After 24 h the cells were taken to a GSIS in the presence of 2.5 mM (weak color bars) or 16.7 mM (strong color bars) glucose. FIG. 7B depicts time-course analysis of the effect of HSA-28P on the rate of insulin secretion in INS-1E cells. The INS-1E cells were prepared for the experiment as described above with 1.34 μM of both HSA-28P or NRPNP, and 0.76 μg/ml of NP. After incubation for the time indicated in the graph, the cells were taken to a GSIS as described in Methods. FIG. 7C depicts the measurement of insulin content. The RIA-assay was performed for INS-1E lysates. […] INS-1E cells were treated as described in Panel D. Cells were detached by trypsin and counted as described in Methods and then were visualized with a Cells Sense Live Imaging microscope. […]
Cells were detached by trypsin and colored by Trypan blue. Only uncolored cells were counted. […]

| Molecule | effect on GSIS in isolated mouse islets (isolated mouse islets) | effect on GSIS (INS-1E cells [1]) | effect on insulin secretion (INS-1E cells [2]) | amount of cells / proliferation rate (INS-1E cells [3]) |
| --- | --- | --- | --- | --- |
| N=C(N)NCCC[C@H](N)C(=O)O [L-arginine] | significantly raised GSIS |  |  |  |
| QQGEFLNYD [HSA-28, short NL-2 mimetic peptide derived from the NL-4/NX-1 crystal complex] |  | did not increase the GSIS | had no effect | has not shown any effect on the proliferation rate |
